Experimental data: US20060069132A1, “Azolecarboxamide herbicides” (priority 2004, published 2006)

Key:
cocklebur = experiment: Test B pre-/postemergence herbicide test; format: in vivo, Xanthium strumarium; conditions: for Cocklebur plant response rating: scale 0 (no effect) to 100 (complete control)
Summary of the method: (§1)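 Pre: seeds sown, then sprayed. Post: 1–4-leaf plants (2–18 cm) sprayed at the same time. Paddy: flooded, treated at 2-leaf stage. Formulation: non-phytotoxic solvent with surfactant. Greenhouse 13–15 days; visual 0–100 score relative to controls.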

barnyardgrass [1] = experiment: Test B flooded paddy test; format: in vivo, Echinochloa crus-galli; conditions: 1000 g ai/ha, scale 0 to 100 (0 no effect, 100 complete control)
Summary of the method: (§2)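 Read-out: visual comparison with controls, scored 0 to 100, where 100 means complete control and 0 no effect. Formulated chemicals were applied postemergence to plants 2–18 cm tall (1- to 4-leaf), or to flooded-paddy plants at the 2-leaf stage, then held 13 to 15 days under glass.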

corn = experiment: Test B pre-/postemergence herbicide test; format: in vivo, Zea mays; conditions: for Corn plant response rating: scale 0 (no effect) to 100 (complete control)
Summary of the method: as §1

Surinam grass = experiment: Test B pre-/postemergence herbicide test; format: in vivo, Urochloa decumbens; conditions: for Surinam Grass plant response rating: scale 0 (no effect) to 100 (complete control)
Summary of the method: as §1

velvetleaf = experiment: Test B pre-/postemergence herbicide test; format: in vivo, Abutilon theophrasti; conditions: for Velvetleaf plant response rating: scale 0 (no effect) to 100 (complete control)
Summary of the method: as §1

large crabgrass = experiment: Test B pre-/postemergence herbicide test; format: in vivo, Digitaria sanguinalis; conditions: for Crabgrass, Large plant response rating: scale 0 (no effect) to 100 (complete control)
Summary of the method: as §1

wheat = experiment: Test B postemergence herbicide test; format: in vivo, Triticum aestivum; set-up: key to Wheat plant response rating: 0 = no effect, 100 = complete control
Summary of the method: (§3)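 Greenhouse test; postemergence application to plants at 1–4 leaves (2–18 cm); paddy species at 2 leaves; evaluated visually vs controls at 13–15 days; scale 0–100 (100 = complete control).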

lambsquarters = experiment: Test B pre-/postemergence herbicide test; format: in vivo, Chenopodium album; conditions: for Lambsquarters plant response rating: scale 0 (no effect) to 100 (complete control)
Summary of the method: as §1

morningglory = experiment: Test B pre-/postemergence herbicide test; format: in vivo, Ipomoea coccinea; conditions: for Morningglory plant response rating: scale 0 (no effect) to 100 (complete control)
Summary of the method: as §1

giant foxtail = experiment: Test B pre-/postemergence herbicide test; format: in vivo, Setaria faberi; conditions: for Foxtail, Giant plant response rating: scale 0 (no effect) to 100 (complete control)
Summary of the method: as §1

rice = experiment: Test B flooded paddy test; format: in vivo, Oryza sativa; conditions: 1000 g ai/ha, scale 0 to 100 (0 no effect, 100 complete control)
Summary of the method: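 Plants grow to 1- to 4-leaf stage (2–18 cm) for postemergence spraying, or to 2-leaf stage for the paddy test. Formulated compound is applied. Greenhouse holding lasts 13–15 days. Response is scored visually relative to controls, 0 no effect to 100 complete control; a dash means no result.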

barnyardgrass [2] = experiment: Test B pre-/postemergence herbicide test; format: in vivo, Echinochloa crus-galli; conditions: for Barnyardgrass plant response rating: scale 0 (no effect) to 100 (complete control)
Summary of the method: as §1

wild oat = experiment: Test B postemergence herbicide test; format: in vivo, Avena fatua; conditions: scale 0 (no effect) to 100 (complete control)
Summary of the method: as §3

[3] = tested on: small flower umbrella sedge; experiment: Test B flooded paddy test; format: in vivo, Cyperus difformis; conditions: 1000 g ai/ha, scale 0 to 100 (0 no effect, 100 complete control)
Summary of the method: as §2

pigweed = experiment: Test B pre-/postemergence herbicide test; format: in vivo, Amaranthus retroflexus; conditions: for Pigweed plant response rating: scale 0 (no effect) to 100 (complete control)
Summary of the method: as §1

[4] = 125 g ai/ha, 0 is no effect, 100 is complete control, preemergence
[5] = 125 g ai/ha, visual rating, postemergence
[6] = 125 g ai/ha, 0 = no effect, 100 = complete control, preemergence
[7] = 500 g ai/ha, visual rating 0-100, 0 no effect, 100 complete control, preemergence
[8] = postemergence, 125 g ai/ha, visual rating
[9] = postemergence, 500 g ai/ha, visual rating

## CCc1nn(C(C)(C)C)nc1C(=O)Nc1cccc(C(=S)N(C)C)c1 [Compound 395]
cocklebur; [4]
  Plant response rating (0 to 100 scale), Cocklebur: 60
cocklebur; [5]
  Cocklebur plant response rating: 70
cocklebur; Postemergence, 500 g ai/ha
  Cocklebur plant response rating: 80
Barnyardgrass [1]
  Barnyardgrass plant response rating: 90
corn; [4]
  Plant response rating (0 to 100 scale), Corn: 90
corn; [5]
  Corn plant response rating: 30
corn; Postemergence, 500 g ai/ha
  Corn plant response rating: 60
Surinam grass; [4]
  Plant response rating (0 to 100 scale), Surinam Grass: 90
Surinam grass; [5]
  Surinam Grass plant response rating: 20
Surinam grass; Postemergence, 500 g ai/ha
  Surinam Grass plant response rating: 60
velvetleaf; [4]
  Plant response rating (0 to 100 scale), Velvetleaf: 80
velvetleaf; [5]
  Velvetleaf plant response rating: 30
velvetleaf; Postemergence, 500 g ai/ha
  Velvetleaf plant response rating: 60
Large crabgrass; [4]
  Plant response rating (0 to 100 scale), Crabgrass, Large: 100
Large crabgrass; [5]
  Crabgrass, Large plant response rating: 20
Large crabgrass; Postemergence, 500 g ai/ha
  Crabgrass, Large plant response rating: 50
wheat; 125 g ai/ha, visual rating, scale 0 (no effect) to 100 (complete control), postemergence
  Wheat plant response rating: 20
wheat; 500 g ai/ha, scale 0 to 100, 0 no effect, 100 complete control, preemergence
  Wheat plant response rating: 100
wheat; Postemergence, 500 g ai/ha, scale 0 (no effect) to 100 (complete control)
  Wheat plant response rating: 30
lambsquarters; [4]
  Plant response rating (0 to 100 scale), Lambsquarters: 100
lambsquarters; [5]
  Lambsquarters plant response rating: 80
lambsquarters; Postemergence, 500 g ai/ha
  Lambsquarters plant response rating: 100
morningglory; [4]
  Plant response rating (0 to 100 scale), Morningglory: 80
morningglory; [5]
  Morningglory plant response rating: 40
morningglory; Postemergence, 500 g ai/ha
  Morningglory plant response rating: 80
Giant foxtail; [4]
  Plant response rating (0 to 100 scale), Foxtail, Giant: 100
Giant foxtail; [5]
  Foxtail, Giant plant response rating: 30
Giant foxtail; Postemergence, 500 g ai/ha
  Foxtail, Giant plant response rating: 50
rice
  Rice plant response rating: 80
Barnyardgrass [2]; [4]
  Plant response rating (0 to 100 scale), Barnyardgrass: 90
Barnyardgrass [2]; [5]
  Barnyardgrass plant response rating: 20
Barnyardgrass [2]; Postemergence, 500 g ai/ha
  Barnyardgrass plant response rating: 70
Wild oat; [5]
  Oat, Wild plant response rating: 40
Wild oat; Postemergence, 500 g ai/ha
  Oat, Wild plant response rating: 40
[3]
  Sedge, Umbrella plant response rating: 90
pigweed; [4]
  Plant response rating (0 to 100 scale), Pigweed: 100
pigweed; [5]
  Pigweed plant response rating: 40
pigweed; Postemergence, 500 g ai/ha
  Pigweed plant response rating: 60

## CCNC(=O)c1cccc(NC(=O)c2sc(C(C)(C)C)nc2CC)c1 [Compound 210]
cocklebur; [6]
  Cocklebur plant response rating (0 to 100 scale): 10
cocklebur; [7]
  Plant response rating, Cocklebur: 40
cocklebur; [8]
  Cocklebur plant response rating: 60
cocklebur; [9]
  Cocklebur plant response rating: 90
Barnyardgrass [1]; visual rating, 13 to 15 days
  Barnyardgrass plant response rating: 80
corn; [6]
  Corn plant response rating (0 to 100 scale): 20
corn; [7]
  Plant response rating, Corn: 70
corn; [8]
  Corn plant response rating: 20
corn; [9]
  Corn plant response rating: 60
Surinam grass; [6]
  Surinam Grass plant response rating (0 to 100 scale): 60
Surinam grass; [7]
  Plant response rating, Surinam Grass: 70
Surinam grass; [8]
  Surinam Grass plant response rating: 20
Surinam grass; [9]
  Surinam Grass plant response rating: 30
velvetleaf; [6]
  Velvetleaf plant response rating (0 to 100 scale): 10
velvetleaf; [7]
  Plant response rating, Velvetleaf: 70
velvetleaf; [8]
  Velvetleaf plant response rating: 30
velvetleaf; [9]
  Velvetleaf plant response rating: 70
Large crabgrass; [6]
  Crabgrass, Large plant response rating (0 to 100 scale): 90
Large crabgrass; [7]
  Plant response rating, Crabgrass, Large: 90
Large crabgrass; [8]
  Crabgrass, Large plant response rating: 20
Large crabgrass; [9]
  Crabgrass, Large plant response rating: 20
wheat; postemergence, 125 g ai/ha, visual rating, scale 0 (no effect) to 100 (complete control)
  Wheat plant response rating: 20
wheat; postemergence, 500 g ai/ha, visual rating, scale 0 (no effect) to 100 (complete control)
  Wheat plant response rating: 20
lambsquarters; [6]
  Lambsquarters plant response rating (0 to 100 scale): 100
lambsquarters; [7]
  Plant response rating, Lambsquarters: 100
lambsquarters; [8]
  Lambsquarters plant response rating: 70
lambsquarters; [9]
  Lambsquarters plant response rating: 80
morningglory; [6]
  Morningglory plant response rating (0 to 100 scale): 20
morningglory; [7]
  Plant response rating, Morningglory: 30
morningglory; [8]
  Morningglory plant response rating: 30
morningglory; [9]
  Morningglory plant response rating: 70
Giant foxtail; [6]
  Foxtail, Giant plant response rating (0 to 100 scale): 80
Giant foxtail; [7]
  Plant response rating, Foxtail, Giant: 100
Giant foxtail; [8]
  Foxtail, Giant plant response rating: 20
Giant foxtail; [9]
  Foxtail, Giant plant response rating: 30
rice; visual rating, 13 to 15 days
  Rice plant response rating: 70
Barnyardgrass [2]; [6]
  Barnyardgrass plant response rating (0 to 100 scale): 70
Barnyardgrass [2]; [7]
  Plant response rating, Barnyardgrass: 90
Barnyardgrass [2]; [8]
  Barnyardgrass plant response rating: 20
Barnyardgrass [2]; [9]
  Barnyardgrass plant response rating: 40
Wild oat; [8]
  Oat, Wild plant response rating: 20
Wild oat; [9]
  Oat, Wild plant response rating: 20
[3]; visual rating, 13 to 15 days
  Sedge, Umbrella plant response rating: 80
pigweed; [6]
  Pigweed plant response rating (0 to 100 scale): 100
pigweed; [7]
  Plant response rating, Pigweed: 100
pigweed; [8]
  Pigweed plant response rating: 40
pigweed; [9]
  Pigweed plant response rating: 70
